This note sets out measurements from ChEMBL document CHEMBL1240467, “Synthesis and antibacterial activities of 6-O-methylerythromycin A 9-O-(3-aryl-2-propenyl) oxime ketolide, 2,3-enol ether, and alkylide analogues” (2010).

Values after ≈ are worked out from the molar mass of the structure shown.

Type in all cases: functional
The subject of assay [1] is Staphylococcus aureus. Briefly: Antibacterial activity against erythromycin-resistant Staphylococcus aureus PU-19 expressing erm(A) gene by broth microdilution method.
Assay [2] deals with Staphylococcus aureus. The assay is described as follows: Antibacterial activity against erythromycin-susceptible Staphylococcus aureus ATCC 29213 by broth microdilution method.
The subject of assay [3] is Staphylococcus aureus. The assay is described as follows: Antibacterial activity against erythromycin-resistant Staphylococcus aureus PU-32 expressing erm(A) gene by broth microdilution method.
Assay [4] has as its system Streptococcus pneumoniae. Briefly: Antibacterial activity against erythromycin-susceptible Streptococcus pneumoniae ATCC 49619 by broth microdilution method.
Assay [5] concerns Streptococcus pneumoniae. The assay is described as follows: Antibacterial activity against erythromycin-resistant Streptococcus pneumoniae PU-11 expressing erm and mef gene by broth microdilution method.
The test system of assay [6] is Streptococcus pneumoniae. The assay is described as follows: Antibacterial activity against erythromycin-resistant Streptococcus pneumoniae PU-27 expressing erm gene by broth microdilution method.
Assay [7] relates to Streptococcus pneumoniae. The assay is described as follows: Antibacterial activity against erythromycin-resistant Streptococcus pneumoniae PU-09 expressing mef gene by broth microdilution method.

For `CC[C@H]1OC(=O)[C@H](C)C(=O)[C@H](C)[C@@H](O[C@H]2O[C@H](C)C[C@H](N(C)C)[C@H]2O)[C@](C)(OC)C[C@@H](C)/C(=N\OC/C=C/c2cncc3ccccc23)[C@H](C)[C@@H]2OC(=O)O[C@]12C`, the MIC was determined as 256 µg/mL (≈ 322 µM) against Staphylococcus aureus [1]; 0.064 µg/mL (≈ 0.0804 µM) in the assay with Staphylococcus aureus [2]; 0.5 µg/mL (≈ 0.628 µM) in the assay on Staphylococcus aureus [3]; 0.032 µg/mL (≈ 0.0402 µM) in the assay with Streptococcus pneumoniae [4]; 64 µg/mL (≈ 80.4 µM) against Streptococcus pneumoniae [5].

Turning to `CC[C@H]1OC(=O)[C@H](C)C(=O)[C@H](C)[C@@H](O[C@H]2O[C@H](C)C[C@H](N(C)C)[C@H]2O)[C@](C)(OC)C[C@@H](C)/C(=N\OC/C=C/c2cnc3ccccc3c2)[C@H](C)[C@@H]2OC(=O)O[C@]12C`, the MIC is 64 µg/mL (≈ 80.4 µM) with Staphylococcus aureus [1]; 0.032 µg/mL (≈ 0.0402 µM) with Staphylococcus aureus [2]; 0.064 µg/mL (≈ 0.0804 µM) with Staphylococcus aureus [3]; at most 0.016 µg/mL with Streptococcus pneumoniae [4]; 32 µg/mL (≈ 40.2 µM) in the assay with Streptococcus pneumoniae [5].

Turning to `CC[C@H]1OC(=O)[C@H](C)C(=O)[C@H](C)[C@@H](O[C@H]2O[C@H](C)C[C@H](N(C)C)[C@H]2O)[C@](C)(OC)C[C@@H](C)/C(=N\OC/C=C/c2cccnc2)[C@H](C)[C@@H]2OC(=O)O[C@]12C`, the MIC was 256 µg/mL (≈ 343 µM) in the assay with Staphylococcus aureus [1]; 0.125 µg/mL (≈ 0.168 µM) against Staphylococcus aureus [2]; 0.125 µg/mL (≈ 0.168 µM) against Staphylococcus aureus [3]; 0.032 µg/mL (≈ 0.0429 µM) in the assay with Streptococcus pneumoniae [4]; 128 µg/mL (≈ 172 µM) in the assay on Streptococcus pneumoniae [5].

Regarding `CC[C@H]1OC(=O)[C@H](C)C(=O)[C@H](C)[C@@H](O[C@H]2O[C@H](C)C[C@H](N(C)C)[C@H]2O)[C@](C)(OC)C[C@@H](C)/C(=N\OC/C=C/c2ccc3ncccc3c2)[C@H](C)[C@@H]2OC(=O)O[C@]12C`, the MIC was 64 µg/mL (≈ 80.4 µM) in the assay with Staphylococcus aureus [1]; 1 µg/mL (≈ 1.26 µM) against Streptococcus pneumoniae [6]; 0.032 µg/mL (≈ 0.0402 µM) in the assay on Staphylococcus aureus [2]; 0.25 µg/mL (≈ 0.314 µM) against Streptococcus pneumoniae [7]; at most 0.016 µg/mL in the assay on Staphylococcus aureus [3]; at most 0.016 µg/mL in the assay with Streptococcus pneumoniae [4]. In addition, the MIC in the assay on Streptococcus pneumoniae [5] came to 32 µg/mL (≈ 40.2 µM).

Turning to `CC[C@H]1OC(=O)[C@H](C)C(=O)[C@H](C)[C@@H](O[C@H]2O[C@H](C)C[C@H](N(C)C)[C@H]2O)[C@](C)(OC)C[C@@H](C)/C(=N\OC/C=C/c2ccc(-n3ccnc3)cc2)[C@H](C)[C@@H]2OC(=O)O[C@]12C`, the minimum inhibitory concentration (MIC) in the assay on Staphylococcus aureus [1] is 64 µg/mL (≈ 78.9 µM); against Streptococcus pneumoniae [6], 1 µg/mL (≈ 1.23 µM); in the assay with Staphylococcus aureus [2] it was 0.125 µg/mL (≈ 0.154 µM); in the assay with Streptococcus pneumoniae [7] it was 0.125 µg/mL (≈ 0.154 µM); against Staphylococcus aureus [3], 0.125 µg/mL (≈ 0.154 µM); against Streptococcus pneumoniae [4] it was at most 0.016 µg/mL. The same molecule had an MIC against Streptococcus pneumoniae [5] of 32 µg/mL (≈ 39.5 µM).

With `CC[C@H]1OC(=O)[C@H](C)C(=O)[C@H](C)[C@@H](O[C@H]2O[C@H](C)C[C@H](N(C)C)[C@H]2O)[C@](C)(OC)C[C@@H](C)/C(=N\OC/C=C/c2cncnc2)[C@H](C)[C@@H]2OC(=O)O[C@]12C`, the MIC in the assay on Staphylococcus aureus [1] is 256 µg/mL (≈ 343 µM); against Streptococcus pneumoniae [6], 1 µg/mL (≈ 1.34 µM); in the assay with Staphylococcus aureus [2], 0.032 µg/mL (≈ 0.0428 µM); against Streptococcus pneumoniae [7], 0.25 µg/mL (≈ 0.335 µM); in the assay on Staphylococcus aureus [3] it was 0.032 µg/mL (≈ 0.0428 µM); with Streptococcus pneumoniae [4], at most 0.016 µg/mL. This molecule also showed an MIC in the assay on Streptococcus pneumoniae [5] of 128 µg/mL (≈ 171 µM).

Regarding `CC[C@H]1OC(=O)[C@H](C)C(O/C=C\Cc2cncc3ccccc23)[C@H](C)[C@@H](O[C@H]2O[C@H](C)C[C@H](N(C)C)[C@H]2O)[C@](C)(OC)C[C@@H](C)/C(=N\OC/C=C/c2cncc3ccccc23)[C@H](C)[C@@H](O)[C@]1(C)O` (some centres not stated), the MIC was determined as 128 µg/mL (≈ 136 µM) in the assay on Staphylococcus aureus [2] and 16 µg/mL (≈ 17 µM) in the assay with Streptococcus pneumoniae [4].

Consider `C=CCOC1[C@@H](C)C(=O)O[C@H](CC)[C@@](C)(O)[C@H](O)[C@@H](C)/C(=N/OC/C=C/c2cncnc2)[C@H](C)C[C@@](C)(OC)[C@H](O[C@H]2O[C@H](C)C[C@H](N(C)C)[C@H]2O)[C@H]1C` (some centres not stated), for which the MIC with Staphylococcus aureus [1] is over 256 µg/mL; against Streptococcus pneumoniae [6] it was 128 µg/mL (≈ 168 µM); in the assay on Staphylococcus aureus [2], 32 µg/mL (≈ 41.9 µM); in the assay with Streptococcus pneumoniae [7] it was 16 µg/mL (≈ 21 µM); in the assay on Staphylococcus aureus [3], 32 µg/mL (≈ 41.9 µM); in the assay with Streptococcus pneumoniae [4], 8 µg/mL (≈ 10.5 µM). The MIC in the assay with Streptococcus pneumoniae [5] was 128 µg/mL (≈ 168 µM).

Turning to `CC[C@H]1OC(=O)[C@H](C)[C@@H](O[C@H]2C[C@@](C)(OC)[C@@H](O)[C@H](C)O2)[C@H](C)[C@@H](O[C@@H]2O[C@H](C)C[C@H](N(C)C)[C@H]2O)[C@](C)(O)C[C@@H](C)CN(C)[C@H](C)[C@@H](O)[C@]1(C)O` [AZITHROMYCIN], the MIC with Staphylococcus aureus [1] was over 256 µg/mL; against Staphylococcus aureus [2], 0.5 µg/mL (≈ 0.668 µM); in the assay on Staphylococcus aureus [3] it was 64 µg/mL (≈ 85.4 µM); in the assay with Streptococcus pneumoniae [4], 0.064 µg/mL (≈ 0.0854 µM); in the assay with Streptococcus pneumoniae [5], 128 µg/mL (≈ 171 µM).

Consider `CC[C@H]1OC(=O)[C@H](C)[C@@H](O[C@H]2C[C@@](C)(OC)[C@@H](O)[C@H](C)O2)[C@H](C)[C@@H](O[C@@H]2O[C@H](C)C[C@H](N(C)C)[C@H]2O)[C@](C)(OC)C[C@@H](C)C(=O)[C@H](C)[C@@H](O)[C@]1(C)O` [CLARITHROMYCIN], for which the MIC against Staphylococcus aureus [1] was over 256 µg/mL; with Streptococcus pneumoniae [6], 16 µg/mL (≈ 21.4 µM); against Staphylococcus aureus [2], 0.125 µg/mL (≈ 0.167 µM); against Streptococcus pneumoniae [7], 4 µg/mL (≈ 5.35 µM); against Staphylococcus aureus [3], 64 µg/mL (≈ 85.6 µM); in the assay with Streptococcus pneumoniae [4] it was 0.032 µg/mL (≈ 0.0428 µM). Further, the MIC with Streptococcus pneumoniae [5] was determined as 128 µg/mL (≈ 171 µM).
